# According to ChEMBL document CHEMBL1135328, “Structure-activity relationship of biaryl acylsulfonamide analogues on the human EP(3) prostanoid receptor” (Bioorg Med Chem Lett, 2002):
# Columns and labels:
# [1] = target: Prostaglandin E2 receptor EP4 subtype (Homo sapiens, UniProt P35408); assay: Binding affinity at human Prostanoid EP4 receptor.
# [2] = target: Prostaglandin E2 receptor EP2 subtype (Homo sapiens, UniProt P43116); assay: Binding affinity at human Prostanoid EP2 receptor.
# [3] = target: T1, Prostaglandin E2 receptor EP3 subtype (Homo sapiens, UniProt P43115); assay: Binding affinity at human Prostanoid EP3 receptor.
# T1 sequence (P43115 whole entry): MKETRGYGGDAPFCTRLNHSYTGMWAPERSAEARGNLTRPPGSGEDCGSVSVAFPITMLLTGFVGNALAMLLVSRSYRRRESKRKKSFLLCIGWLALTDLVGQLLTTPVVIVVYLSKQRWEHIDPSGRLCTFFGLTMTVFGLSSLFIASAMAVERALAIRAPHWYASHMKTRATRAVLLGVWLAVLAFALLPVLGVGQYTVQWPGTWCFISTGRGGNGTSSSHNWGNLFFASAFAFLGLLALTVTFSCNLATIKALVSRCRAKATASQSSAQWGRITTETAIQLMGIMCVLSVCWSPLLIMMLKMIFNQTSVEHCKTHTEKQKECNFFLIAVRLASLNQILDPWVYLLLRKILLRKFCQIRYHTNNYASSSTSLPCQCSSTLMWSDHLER
# [4] = target: T2, Prostaglandin E2 receptor EP1 subtype (Homo sapiens, UniProt P34995); assay: Binding affinity at human Prostanoid EP1 receptor.
# T2 sequence (P34995 whole entry): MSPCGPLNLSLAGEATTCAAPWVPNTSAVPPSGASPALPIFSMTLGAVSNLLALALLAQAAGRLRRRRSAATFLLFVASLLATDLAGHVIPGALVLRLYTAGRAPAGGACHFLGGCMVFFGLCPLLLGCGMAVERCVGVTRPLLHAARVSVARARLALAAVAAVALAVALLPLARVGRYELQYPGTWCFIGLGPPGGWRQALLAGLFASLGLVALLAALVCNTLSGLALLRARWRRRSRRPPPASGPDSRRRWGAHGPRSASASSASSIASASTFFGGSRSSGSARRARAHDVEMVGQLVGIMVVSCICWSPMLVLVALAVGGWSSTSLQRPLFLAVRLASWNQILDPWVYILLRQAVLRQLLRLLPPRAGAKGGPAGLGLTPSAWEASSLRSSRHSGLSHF
# [5] = target: Prostaglandin F2-alpha receptor (Homo sapiens, UniProt P43088); assay: Inhibitory constant against Prostanoid FP receptor
# [6] = target: T3, Prostaglandin D2 receptor (Homo sapiens, UniProt Q13258); assay: Inhibitory constant against Prostanoid DP receptor
# T3 sequence (Q13258 whole entry): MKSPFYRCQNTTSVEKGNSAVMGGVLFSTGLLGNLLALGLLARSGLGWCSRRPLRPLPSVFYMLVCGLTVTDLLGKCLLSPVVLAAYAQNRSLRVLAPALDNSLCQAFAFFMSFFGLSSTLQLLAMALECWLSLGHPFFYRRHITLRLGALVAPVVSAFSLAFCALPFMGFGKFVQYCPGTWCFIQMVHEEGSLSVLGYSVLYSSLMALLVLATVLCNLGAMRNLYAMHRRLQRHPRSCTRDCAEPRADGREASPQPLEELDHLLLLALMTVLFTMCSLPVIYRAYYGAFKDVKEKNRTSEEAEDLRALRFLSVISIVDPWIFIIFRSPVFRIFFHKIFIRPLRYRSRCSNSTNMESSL
# [7] = target: Prostacyclin receptor (Homo sapiens, UniProt P43119); assay: Inhibitory constant against Prostanoid IP receptor
# Prostacyclin receptor, sequence (P43119 whole entry): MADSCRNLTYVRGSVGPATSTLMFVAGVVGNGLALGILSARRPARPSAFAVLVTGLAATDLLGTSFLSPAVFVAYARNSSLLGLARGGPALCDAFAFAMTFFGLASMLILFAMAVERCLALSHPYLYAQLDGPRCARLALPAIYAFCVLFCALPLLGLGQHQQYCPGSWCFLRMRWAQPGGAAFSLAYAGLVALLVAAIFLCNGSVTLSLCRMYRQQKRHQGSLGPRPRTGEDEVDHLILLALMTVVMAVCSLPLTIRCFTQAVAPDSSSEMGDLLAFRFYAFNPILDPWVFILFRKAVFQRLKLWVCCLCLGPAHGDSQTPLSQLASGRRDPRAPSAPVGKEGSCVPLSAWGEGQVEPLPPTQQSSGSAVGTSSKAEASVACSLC
# Prostaglandin E2 receptor EP4 subtype, sequence (P35408 whole entry): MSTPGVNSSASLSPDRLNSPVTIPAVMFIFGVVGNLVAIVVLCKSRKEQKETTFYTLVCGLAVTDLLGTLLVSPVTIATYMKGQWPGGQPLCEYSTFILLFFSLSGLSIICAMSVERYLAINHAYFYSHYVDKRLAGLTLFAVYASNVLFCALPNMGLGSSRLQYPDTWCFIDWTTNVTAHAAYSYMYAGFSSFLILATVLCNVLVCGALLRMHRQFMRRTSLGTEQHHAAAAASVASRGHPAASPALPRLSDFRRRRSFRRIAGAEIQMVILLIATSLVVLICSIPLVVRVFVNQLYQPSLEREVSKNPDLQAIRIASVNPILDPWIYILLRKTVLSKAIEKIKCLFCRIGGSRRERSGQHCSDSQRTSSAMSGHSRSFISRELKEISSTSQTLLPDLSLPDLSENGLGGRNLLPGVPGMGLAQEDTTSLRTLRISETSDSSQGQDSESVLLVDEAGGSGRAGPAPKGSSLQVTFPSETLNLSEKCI
# Prostaglandin E2 receptor EP2 subtype, sequence (P43116 whole entry): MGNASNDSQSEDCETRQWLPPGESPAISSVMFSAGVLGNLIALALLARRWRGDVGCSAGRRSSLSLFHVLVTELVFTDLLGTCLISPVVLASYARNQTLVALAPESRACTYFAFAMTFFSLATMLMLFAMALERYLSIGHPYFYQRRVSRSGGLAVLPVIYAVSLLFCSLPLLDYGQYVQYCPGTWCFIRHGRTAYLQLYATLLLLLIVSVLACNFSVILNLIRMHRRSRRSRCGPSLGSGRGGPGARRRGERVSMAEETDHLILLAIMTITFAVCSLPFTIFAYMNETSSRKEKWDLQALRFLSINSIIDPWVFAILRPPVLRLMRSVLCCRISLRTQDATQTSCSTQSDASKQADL
# Prostaglandin F2-alpha receptor, sequence (P43088 whole entry): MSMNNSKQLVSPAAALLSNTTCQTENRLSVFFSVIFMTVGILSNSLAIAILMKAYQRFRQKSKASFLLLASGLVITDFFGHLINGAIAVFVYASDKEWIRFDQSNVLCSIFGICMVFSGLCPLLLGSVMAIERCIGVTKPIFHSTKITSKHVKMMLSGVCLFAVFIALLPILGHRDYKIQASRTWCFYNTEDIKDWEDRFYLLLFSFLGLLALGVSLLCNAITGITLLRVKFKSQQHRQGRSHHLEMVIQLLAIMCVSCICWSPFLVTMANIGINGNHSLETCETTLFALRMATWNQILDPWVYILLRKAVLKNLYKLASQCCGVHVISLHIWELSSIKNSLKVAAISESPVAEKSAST
SMILES,Ki [1] [µM],Ki [2] [µM],Ki [3] [µM],Ki [4] [µM],Ki [5] [µM],Ki [6] [µM],Ki [7] [µM]
c1ccc(CCSCc2ccc(-c3ccccc3CCc3nnn[nH]3)cc2)cc1,2.6,0.063,1,4.9,,,
O=C(/C=C/c1ccccc1-c1cccc(/C=C/c2ccc3ccc(Cl)cc3n2)c1)NS(=O)(=O)c1cccs1,28,70,0.11,41,,,
CSc1cccc(-c2ccccc2CCC(=O)NS(=O)(=O)c2cccs2)c1,25,31,0.24,27,,,
O=C(CCc1ccccc1-c1ccccc1CSCCc1ccccc1)NS(=O)(=O)c1cccs1,1.5,3.8,0.51,0.083,,,
O=C(CCc1ccccc1-c1cccc(/C=C/c2ccc3ccc(Cl)cc3n2)c1)NS(=O)(=O)c1cccs1,19,16,0.12,49,,,
O=C(O)CCc1ccccc1-c1ccc(CSCCc2ccccc2)cc1,4.4,0.14,0.74,8.6,,,
CS(=O)(=O)c1cccc(-c2ccccc2CCC(=O)NS(=O)(=O)c2cccs2)c1,> 100,> 100,5.9,> 100,,,
Cc1cccc(OCCCOc2ccc(-c3ccccc3CCC(=O)NS(=O)(=O)c3cccs3)cc2)c1,1.6,2.9,0.053,4.6,,,
O=C(CCc1ccccc1-c1ccc(OCCCOc2cccc(CSCCc3ccccc3)c2)cc1)NS(=O)(=O)c1cccs1,7.1,4.9,0.016,13,,,
O=C(/C=C/c1ccccc1-c1ccc(Cl)c(Cl)c1)NS(=O)(=O)c1cccs1,3.7,27,0.025,8.2,17,0.83,7.3
Cc1cccc(OCCCOc2ccc(-c3ccccc3CNC(=O)NS(=O)(=O)c3cccs3)cc2)c1,2.9,8.6,0.15,15,,,

# The next compounds have a lower Ki [1] than those just listed; values first:
Ki [1] [µM],Ki [2] [µM],Ki [3] [µM],Ki [4] [µM],Ki [5] [µM],Ki [6] [µM],Ki [7] [µM],SMILES
1.1,3,0.61,7.5,,,,O=S(=O)(CCc1ccccc1-c1ccc(CSCCc2ccccc2)cc1)NS(=O)(=O)c1cccs1
0.69,2.5,0.48,2.8,,,,O=C(NS(=O)(=O)CCc1ccccc1-c1ccc(CSCCc2ccccc2)cc1)c1cccs1
1.1,2.9,0.34,5.8,,,,Cc1cccc(OCCCOc2ccc(-c3ccccc3CC(C)C(=O)NS(=O)(=O)c3cccs3)cc2)c1 (configuration not stated)
0.046,> 10,7,> 10,,,,CCCCc1nn(-c2ccccc2C(F)(F)F)c(=O)n1Cc1ccc(-c2ccccc2S(=O)(=O)NC(=O)c2cccs2)cc1
0.7,1.8,0.2,3,,,,O=C(CCCc1ccccc1-c1ccc(CSCCc2ccccc2)cc1)NS(=O)(=O)c1cccs1
1.1,2.7,0.046,1.7,,,,O=C(CCc1ccccc1-c1ccc(CSCCc2ccccc2)cc1)NS(=O)(=O)c1cccs1
0.85,0.59,0.33,3.7,,,,O=C(Cc1ccccc1-c1ccc(CSCCc2ccccc2)cc1)NS(=O)(=O)c1cccs1
1,2,0.027,0.82,,,,O=C(CCc1ccccc1-c1cccc(CSCCc2ccccc2)c1)NS(=O)(=O)c1cccs1
0.73,2.1,0.12,2.8,,,,Cc1cccc(OCCCOc2ccc(-c3ccccc3COC(=O)NS(=O)(=O)c3cccs3)cc2)c1
1,2.9,0.44,1.8,,,,Cc1cccc(OCCCOc2ccc(-c3ccccc3CC(C)(C)C(=O)NS(=O)(=O)c3cccs3)cc2)c1
